Test results as given in ChEMBL document CHEMBL1201862, “PubChem BioAssay data set” (2004).
Calls of active or inactive are those of the source.

How the values were obtained:
Bcl-2-like protein 10 = target: T1, Bcl-2-like protein 10 (Homo sapiens, UniProt Q9HD36); assay: Bcl-B/TR3 peptide binding disruption – biochemical, fluorescence polarization, FITC-TR3 peptide, selectivity assay for Bfl-1 inhibitor project, primary screen (AID 748);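 note: fluorescence polarization from a fluorescein-labelled TR3 peptide binding purified Bcl-B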
T1 sequence (Q9HD36 whole entry): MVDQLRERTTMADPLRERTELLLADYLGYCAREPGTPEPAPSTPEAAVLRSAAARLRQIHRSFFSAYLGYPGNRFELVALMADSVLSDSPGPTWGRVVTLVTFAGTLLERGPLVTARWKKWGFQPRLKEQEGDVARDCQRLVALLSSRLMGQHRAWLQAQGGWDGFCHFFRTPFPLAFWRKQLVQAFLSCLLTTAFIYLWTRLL

Estrogen receptor beta [1] = target: T2, Estrogen receptor beta (Homo sapiens, UniProt Q92731);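 note: recombinant ER-beta bound to coactivator SRC1 peptide in presence of estradiol agonist; inhibitors block coactivator peptide binding and lower the FRET signal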
Estrogen receptor beta [2] = target: T2, Estrogen receptor beta; assay: blockers of SRC-3 recruitment to ERβ – biochemical, ELISA, streptavidin-HRP readout, orthogonal assay, confirmation (AID 1060)
[3] = A cytotoxicity screen of small molecule inhibitors of the PhoP region in Salmonella typhi identified in the primary screen. [Related pubchem assays: 1850, 1864, 1985 ]; format: functional
[4] = Luminescence Cell-Based Dose Response to Identify Activators of 5'UTR Stem-Loop Driven Prion Protein mRNA Translation in H4-C Neuroglioblastoma Cells. [Related pubchem assays: 1829 (Project Summary), 1814 (Primary HTS)]; format: functional
[5] = Luminescence Cell-Based Dose Confirmation HTS to Identify Activators of 5'UTR Stem-Loop Driven Alpha-Synuclein mRNA Translation in H4 Neuroglioblastoma Cells. [Related pubchem assays: 1829 (Project Summary), 1814 (Primary HTS)]; format: functional
[6] = Luminescence Cell-Based Dose Response HTS to Identify Activators of Luciferase Translation or Activity in H4 […] Cells. [Related pubchem assays: 1829 (Project Summary), 1814 (Primary HTS)]; format: functional
H4 = assay: Luminescence Cell-Based Dose Response HTS to Identify Activators of 5'UTR Stem-Loop Driven Prion Protein mRNA Translation in H4 Neuroglioblastoma Cells. [Related pubchem assays: 1829 (Project Summary), 1814 (Primary HTS)]; format: functional; settings: Homo sapiens
[7] = Luminescence Cell-Based Dose Response to Identify Activators of Luciferase Translation or Activity in H4-C Neuroglioblastoma Cells. [Related pubchem assays: 1829 (Project Summary), 1814 (Primary HTS)]; format: functional
[8] = Luminescence Cell-Based Dose Confirmation to Identify Activators of 5'UTR Stem-Loop Driven Alpha-Synuclein mRNA Translation in H4 Neuroglioblastoma Cells. [Related pubchem assays: 1829 (Project Summary), 1814 (Primary HTS)]; format: functional
[9] = target: T3, Carboxy-terminal domain RNA polymerase II polypeptide A small phosphatase 1 (Homo sapiens, UniProt Q9GZU7); assay: CTDSP1 inhibitors, concentration-response, biochemical, absorbance readout, ultra-high-throughput screen actives (AID 540297); format: functional
T3 sequence (Q9GZU7 whole entry): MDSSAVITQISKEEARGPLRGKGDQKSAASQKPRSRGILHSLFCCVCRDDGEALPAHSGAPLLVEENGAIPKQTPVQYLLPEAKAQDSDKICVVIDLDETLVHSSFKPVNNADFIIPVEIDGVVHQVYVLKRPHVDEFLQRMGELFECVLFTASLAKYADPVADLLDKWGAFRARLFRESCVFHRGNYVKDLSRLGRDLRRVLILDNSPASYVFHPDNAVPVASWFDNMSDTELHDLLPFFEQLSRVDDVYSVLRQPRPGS

Troponin, cardiac muscle = Troponin, cardiac muscle (Homo sapiens, UniProt P19429+P45379+P63316); assay: Fluorescence-based biochemical high throughput dose response assay for activators of the calcium sensitivity of cardiac Regulated Thin Filaments (RTF). [Related pubchem assays (depositor defined):AID493008, AID493018, AID504382, AID504383]; format: protein-complex assay
[10] = target: T4, High affinity choline transporter 1 (Homo sapiens, UniProt Q9GZV3); assay: human choline transporter blockers, potency – cell-based, 5-point CRC, membrane potential dye, dose response (AID 504840); format: functional
T4 sequence (Q9GZV3 whole entry): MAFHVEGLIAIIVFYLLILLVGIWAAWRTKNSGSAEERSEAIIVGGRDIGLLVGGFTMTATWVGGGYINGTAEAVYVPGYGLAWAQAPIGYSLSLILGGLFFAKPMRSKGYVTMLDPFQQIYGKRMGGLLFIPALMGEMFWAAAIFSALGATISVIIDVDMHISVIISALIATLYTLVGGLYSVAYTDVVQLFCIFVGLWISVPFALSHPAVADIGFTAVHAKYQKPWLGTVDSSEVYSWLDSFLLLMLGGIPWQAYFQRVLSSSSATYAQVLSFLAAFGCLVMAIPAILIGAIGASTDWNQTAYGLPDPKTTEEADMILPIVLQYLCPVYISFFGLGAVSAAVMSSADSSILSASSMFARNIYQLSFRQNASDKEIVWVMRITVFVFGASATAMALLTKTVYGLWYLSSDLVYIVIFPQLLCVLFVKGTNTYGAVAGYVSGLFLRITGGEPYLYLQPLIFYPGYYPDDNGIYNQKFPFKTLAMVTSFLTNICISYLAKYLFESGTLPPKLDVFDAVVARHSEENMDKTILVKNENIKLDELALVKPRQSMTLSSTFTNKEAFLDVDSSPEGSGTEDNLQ

[11] = viability loss in HeLa cells – cytotoxicity control for MgcRacGAP inhibitor project, dose response (AID 624300); format: functional
[12] = target: T5, Rac GTPase-activating protein 1 (Homo sapiens, UniProt Q9H0H5); assay: blockers of MgcRacGAP-driven Rac1 GTP hydrolysis – biochemical, ADP Hunter fluorescence, primary and confirmatory, confirmation (AID 624330); format: functional
T5 sequence (Q9H0H5 whole entry): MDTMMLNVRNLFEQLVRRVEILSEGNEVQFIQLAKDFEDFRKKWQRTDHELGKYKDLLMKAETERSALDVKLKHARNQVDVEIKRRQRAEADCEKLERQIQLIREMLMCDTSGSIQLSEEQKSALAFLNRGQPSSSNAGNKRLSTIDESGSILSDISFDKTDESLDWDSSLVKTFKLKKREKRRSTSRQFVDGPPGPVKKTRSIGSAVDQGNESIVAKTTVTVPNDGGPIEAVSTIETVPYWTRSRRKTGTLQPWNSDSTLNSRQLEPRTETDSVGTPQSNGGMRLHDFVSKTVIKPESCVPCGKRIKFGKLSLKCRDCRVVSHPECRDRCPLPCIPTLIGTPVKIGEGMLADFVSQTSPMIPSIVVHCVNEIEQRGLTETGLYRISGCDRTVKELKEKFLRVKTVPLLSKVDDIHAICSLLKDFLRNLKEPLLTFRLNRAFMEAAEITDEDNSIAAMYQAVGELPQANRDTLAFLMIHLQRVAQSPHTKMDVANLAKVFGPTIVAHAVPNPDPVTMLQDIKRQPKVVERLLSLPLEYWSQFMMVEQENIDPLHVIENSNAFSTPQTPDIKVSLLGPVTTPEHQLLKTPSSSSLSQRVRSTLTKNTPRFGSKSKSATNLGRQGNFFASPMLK

Cytochrome P450 3A4 [13] = target: T6, Cytochrome P450 3A4 (Homo sapiens, UniProt P08684); settings: Potency
[14] = target: T7, Mannose-6-phosphate isomerase (Homo sapiens, UniProt P34949); assay: phosphomannose isomerase inhibition – biochemical, fluorescence intensity, confirmation (AID 1535)
T7 sequence (P34949 whole entry): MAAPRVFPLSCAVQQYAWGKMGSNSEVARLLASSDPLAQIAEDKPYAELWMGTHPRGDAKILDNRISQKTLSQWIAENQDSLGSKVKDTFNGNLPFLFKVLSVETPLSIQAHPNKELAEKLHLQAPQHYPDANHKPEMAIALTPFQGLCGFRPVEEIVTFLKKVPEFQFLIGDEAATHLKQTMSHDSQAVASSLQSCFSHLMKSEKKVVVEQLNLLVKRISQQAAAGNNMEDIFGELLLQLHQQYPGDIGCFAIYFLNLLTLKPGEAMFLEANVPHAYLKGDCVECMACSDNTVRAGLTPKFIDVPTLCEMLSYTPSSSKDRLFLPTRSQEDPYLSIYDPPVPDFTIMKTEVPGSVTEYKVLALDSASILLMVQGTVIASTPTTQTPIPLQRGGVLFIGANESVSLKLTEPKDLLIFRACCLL

Phosphomannomutase 2 = target: T8, Phosphomannomutase 2 (Homo sapiens, UniProt O15305); assay: Counter screen SAR assay for PMM2 inhibitors via a fluorescence intensity assay. [Related pubchem assays (depositor defined):AID1545, AID1574]
T8 sequence (O15305 whole entry): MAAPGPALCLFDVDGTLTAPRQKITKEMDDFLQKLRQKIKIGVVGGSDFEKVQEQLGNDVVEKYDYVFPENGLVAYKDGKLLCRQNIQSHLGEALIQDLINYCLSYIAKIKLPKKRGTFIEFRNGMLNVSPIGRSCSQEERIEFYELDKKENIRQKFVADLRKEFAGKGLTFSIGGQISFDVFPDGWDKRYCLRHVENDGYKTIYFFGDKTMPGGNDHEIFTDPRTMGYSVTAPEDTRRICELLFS

HeLa = assay: viability loss in HeLa cells – cell-based, 24 h, cherry-picked samples, cytotoxicity control, dose response (AID 504726); format: functional; settings: Homo sapiens;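 note: potency for cytotoxicity as loss of luminescence signal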
Large T antigen = Large T antigen (Simian virus 40, UniProt P03070); format: functional, Betapolyomavirus macacae;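 note: Confirmatory-stage PubChem screen for compounds that inhibit SV40 T antigen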
Cytochrome P450 2D6 = Cytochrome P450 2D6 (Homo sapiens, UniProt P10635);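 note: CYP2D6 member of a cytochrome P450 panel assay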
Cytochrome P450 1A2 = target: T9, Cytochrome P450 1A2 (Homo sapiens, UniProt P05177);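 note: PubChem cytochrome P450 panel assay, CYP1A2 panel member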
T9 sequence (P05177 whole entry): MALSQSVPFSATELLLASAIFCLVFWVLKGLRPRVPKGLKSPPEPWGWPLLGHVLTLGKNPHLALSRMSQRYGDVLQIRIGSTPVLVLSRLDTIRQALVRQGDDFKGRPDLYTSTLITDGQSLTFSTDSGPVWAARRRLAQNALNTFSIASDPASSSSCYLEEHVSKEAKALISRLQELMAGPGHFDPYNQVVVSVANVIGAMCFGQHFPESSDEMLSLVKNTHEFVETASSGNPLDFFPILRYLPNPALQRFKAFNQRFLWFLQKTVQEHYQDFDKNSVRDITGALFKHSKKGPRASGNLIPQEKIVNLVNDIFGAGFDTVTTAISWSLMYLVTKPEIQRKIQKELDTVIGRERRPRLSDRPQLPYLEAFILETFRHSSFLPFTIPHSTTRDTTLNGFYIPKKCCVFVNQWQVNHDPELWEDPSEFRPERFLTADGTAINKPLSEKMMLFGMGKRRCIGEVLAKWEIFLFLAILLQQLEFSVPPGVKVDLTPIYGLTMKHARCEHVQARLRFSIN

Cytochrome P450 3A4 [15] = target: T6, Cytochrome P450 3A4

T6 sequence (P08684 whole entry): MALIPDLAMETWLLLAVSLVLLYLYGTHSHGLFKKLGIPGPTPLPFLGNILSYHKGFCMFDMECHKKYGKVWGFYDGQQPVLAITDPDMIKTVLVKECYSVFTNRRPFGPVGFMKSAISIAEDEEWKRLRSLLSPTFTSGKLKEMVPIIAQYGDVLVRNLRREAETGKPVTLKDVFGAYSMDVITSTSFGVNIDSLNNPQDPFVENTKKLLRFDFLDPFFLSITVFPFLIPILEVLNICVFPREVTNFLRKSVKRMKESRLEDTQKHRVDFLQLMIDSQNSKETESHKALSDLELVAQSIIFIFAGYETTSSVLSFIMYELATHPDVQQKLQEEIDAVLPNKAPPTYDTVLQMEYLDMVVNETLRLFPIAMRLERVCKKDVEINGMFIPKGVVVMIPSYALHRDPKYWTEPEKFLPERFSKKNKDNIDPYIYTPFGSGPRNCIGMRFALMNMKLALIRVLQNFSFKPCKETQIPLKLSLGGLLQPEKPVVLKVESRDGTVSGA
T2 sequence (Q92731 whole entry): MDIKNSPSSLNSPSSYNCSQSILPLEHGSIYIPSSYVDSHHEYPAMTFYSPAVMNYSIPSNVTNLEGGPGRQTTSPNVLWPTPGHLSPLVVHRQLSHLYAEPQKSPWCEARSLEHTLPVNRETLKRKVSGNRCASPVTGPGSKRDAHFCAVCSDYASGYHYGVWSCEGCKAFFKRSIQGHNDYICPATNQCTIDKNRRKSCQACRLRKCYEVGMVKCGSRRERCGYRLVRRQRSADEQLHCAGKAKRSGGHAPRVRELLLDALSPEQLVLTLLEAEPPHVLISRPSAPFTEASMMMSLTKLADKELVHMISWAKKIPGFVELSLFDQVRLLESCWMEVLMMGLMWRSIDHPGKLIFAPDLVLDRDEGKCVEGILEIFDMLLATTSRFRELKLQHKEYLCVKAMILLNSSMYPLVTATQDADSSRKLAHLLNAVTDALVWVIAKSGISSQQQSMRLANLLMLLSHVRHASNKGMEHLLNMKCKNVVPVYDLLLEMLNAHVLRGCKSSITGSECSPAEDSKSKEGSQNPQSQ
Chain of Cytochrome P450 2D6 (P10635 whole entry): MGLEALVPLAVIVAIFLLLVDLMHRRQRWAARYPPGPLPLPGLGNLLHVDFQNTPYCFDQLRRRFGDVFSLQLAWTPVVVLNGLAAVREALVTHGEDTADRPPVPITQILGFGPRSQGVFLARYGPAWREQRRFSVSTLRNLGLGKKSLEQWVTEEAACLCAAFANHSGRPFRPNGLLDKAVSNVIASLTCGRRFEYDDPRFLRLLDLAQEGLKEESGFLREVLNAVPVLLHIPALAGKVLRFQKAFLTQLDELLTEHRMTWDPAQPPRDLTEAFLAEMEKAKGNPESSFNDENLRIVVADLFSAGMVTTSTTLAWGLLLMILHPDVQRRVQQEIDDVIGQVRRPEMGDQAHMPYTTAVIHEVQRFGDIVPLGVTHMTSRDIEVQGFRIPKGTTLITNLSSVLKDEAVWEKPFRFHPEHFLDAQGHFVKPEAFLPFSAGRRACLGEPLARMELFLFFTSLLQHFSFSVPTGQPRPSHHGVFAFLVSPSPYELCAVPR
Chain of Large T antigen (P03070 whole entry): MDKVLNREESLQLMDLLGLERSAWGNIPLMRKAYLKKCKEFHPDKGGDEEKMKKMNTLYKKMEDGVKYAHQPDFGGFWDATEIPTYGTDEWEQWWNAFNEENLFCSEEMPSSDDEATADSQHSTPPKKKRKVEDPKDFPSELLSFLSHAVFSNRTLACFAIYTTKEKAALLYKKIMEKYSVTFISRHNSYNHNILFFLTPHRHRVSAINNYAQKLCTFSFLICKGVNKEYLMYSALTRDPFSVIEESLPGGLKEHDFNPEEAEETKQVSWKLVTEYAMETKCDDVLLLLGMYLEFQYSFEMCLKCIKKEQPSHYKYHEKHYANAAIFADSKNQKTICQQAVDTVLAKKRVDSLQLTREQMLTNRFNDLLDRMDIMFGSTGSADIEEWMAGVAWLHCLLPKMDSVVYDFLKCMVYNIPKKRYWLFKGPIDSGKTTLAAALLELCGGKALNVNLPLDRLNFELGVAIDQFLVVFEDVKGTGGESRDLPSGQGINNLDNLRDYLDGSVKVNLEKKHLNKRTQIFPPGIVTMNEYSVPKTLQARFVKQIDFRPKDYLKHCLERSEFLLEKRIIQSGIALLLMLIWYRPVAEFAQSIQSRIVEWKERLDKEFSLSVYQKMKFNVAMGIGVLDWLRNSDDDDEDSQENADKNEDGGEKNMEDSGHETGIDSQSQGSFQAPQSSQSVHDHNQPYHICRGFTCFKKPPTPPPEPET

CCOc1ccc(C(=O)OCC(=O)NCc2ccco2)cc1OCC
IC50 (Bcl-2-like protein 10): > 100 µM (inactive) | IC50 (Estrogen receptor beta [1]): > 50 µM (not active) | IC50 (Estrogen receptor beta [2]): 0.113 µM (not active)

CCCCCC(=O)NNC(=S)NC(C)=O
EC50 [3]: > 50 µM (active)

COc1ccc(NC(=O)c2cnn3c(C(F)(F)F)cc(-c4ccco4)nc23)cc1OC
IC50 (Bcl-2-like protein 10): 66.8 µM (inactive)

COc1ccccc1-c1nn2c(-c3ccco3)nnc2s1
EC50 [4]: 1.27 µM (active) | EC50 [5]: 0.129 µM (active) | EC50 [6]: < 0.1 µM (active) | EC50 (H4): 14.9 µM (active) | EC50 [7]: 0.431 µM (active) | EC50 [8]: 0.613 µM (active) | IC50 [9]: 12 µM (active)

CCc1ccc(NC2=NCCCS2)cc1
EC50 [3]: > 50 µM (active)

COc1ccccc1NC(=O)COC(=O)c1cnc(C)cn1
EC50 (Troponin, cardiac muscle): > 71.5 µM (inactive)

O=C(NCc1nnc(SCC(=O)N2CCCCCC2)o1)c1ccco1
EC50 (Troponin, cardiac muscle): > 71.5 µM (inactive)

CCN(Cc1ccccc1)S(=O)(=O)c1cc(C(=O)NC2CCCCCC2)ccc1OC
IC50 [10]: 0.575 µM (active)

CNS(=O)(=O)c1ccc(N/C=C2/C(=O)NC(=O)N(c3ccccc3)C2=O)cc1
EC50 (Troponin, cardiac muscle): > 71.5 µM (inactive)

CN(C)c1ccc(NC(=O)c2sc(SCC(=O)Nc3nccs3)nc2N)cc1
EC50 [4]: 1.28 µM (active) | EC50 [6]: < 0.1 µM (active) | EC50 [7]: 0.575 µM (active) | EC50 [8]: 0.236 µM (active) | CC50 [11]: 100 µM (active) | IC50 [12]: 107 µM (active)

COCCN1CCn2c(nc3cc(NC(=O)NC4CCCCC4)ccc32)C1
IC50 (Bcl-2-like protein 10): > 12.5 µM (inactive)

O=C(NCc1ccccc1)c1cccc(COc2ccc(Cl)cc2)c1
EC50 [4]: > 12 µM (not active) | EC50 [6]: < 0.1 µM (active) | EC50 (H4): > 120 µM (not active) | EC50 [7]: > 12 µM (not active) | EC50 [8]: 0.261 µM (active)

Cc1ccc(OCc2nnc(NC(=O)c3cccnc3)s2)cc1
EC50 [3]: > 50 µM (active)

CC(C)C1=CC2=CCC3[C@@](C)(CCC[C@@]3(C)C(=O)O)C2CC1 (stereo partly specified)
AC50 (Cytochrome P450 3A4 [13]): 39.8 µM (inconclusive)

Cc1cc2n(n1)SC(Nc1ccc(F)cc1)N2 (stereo unspecified)
IC50 [14]: > 50 µM (inactive) | IC50 (Phosphomannomutase 2): > 100 µM (inactive)

CCN(Cc1ccccc1)S(=O)(=O)c1cc2nc(O)c(O)nc2cc1C
AC50 (HeLa): > 350 µM (inactive)

CC(=O)NC(=NOCc1ccc(Br)cc1)c1nonc1NC(C)=O
AC50 (HeLa): > 350 µM (inactive)

CS(=O)(=O)c1ccc2nc(-n3sc4ccccc4c3=O)sc2c1
IC50 [14]: > 50 µM (inactive) | IC50 (Phosphomannomutase 2): > 100 µM (inactive)

Cc1cnc(/N=c2\ssnc2Cl)cn1
IC50 [14]: > 100 µM (inactive)

CC(C)[C@H](NC(=O)c1ccccc1F)C(=O)NC1CCCCCCC1
AC50 (HeLa): 135 µM (active)

CC(C)N(C(S)=Nc1cccnc1)c1ccccc1
AC50 (HeLa): > 350 µM (inactive)

O=c1c(O)c(-c2ccccc2)oc2cc(O)ccc12 [3,7-DIHYDROXYFLAVONE]
AC50 (Cytochrome P450 3A4 [13]): 39.8 µM (inconclusive)

CC(=O)NCCc1c[nH]c2ccc(O)cc12 [ACETYLSEROTONIN]
IC50 (Large T antigen): 21.7 µM (active) | AC50 (Cytochrome P450 3A4 [13]): 25.1 µM (inconclusive) | AC50 (Cytochrome P450 2D6): 15.8 µM (inconclusive) | AC50 (Cytochrome P450 1A2): 15.8 µM (inconclusive) | AC50 (Cytochrome P450 3A4 [15]): 7.94 µM (inconclusive)
